Data on 20 compounds can be found in patent US20260265238A1, “COMPOUNDS AND PHARMACEUTICAL COMPOSITIONS THAT DEGRADE SWI/SNF-RELATED MATRIX-ASSOCIATED ACTIN-DEPENDENT REGULATOR OF CHROMATIN SUBFAMILY A” (Plexium, Inc., priority 2023, published 2026).

Assay [1] deals with T1, SMARCA2-HiBiT HeLa cells (protein which is expressed from the SMARCA2 gene) (Homo sapiens, UniProt P51531).
T1 construct: protein which is expressed from the SMARCA2 and SMARCA4 genes; host or cells: HeLa (SMARCA2-HiBiT engineered line)
The experiment in a line: SMARCA2 degradation assay (HiBiT-fusion HeLa cell line, 24 h, luminescence). In kind it is cell-based. The procedure, abridged: (§1)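 HiBiT-fusion HeLa lines, 8,000 cells/well, overnight attachment; cpd 10-pt series (typically 10 μM–300 pM), 24 h, 37° C. Lysis with LgBiT + HiBiT substrate, 10 min shaking at RT, luminescence read. DC50 from dose-response fit; % degradation also scored at 1 μM.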

Assay [2] deals with T2, SMARCA4-HiBiT HeLa cells (protein which is expressed from the SMARCA4 gene) (Homo sapiens, UniProt P51532).
T2 construct: protein which is expressed from the SMARCA2 and SMARCA4 genes; host or cells: HeLa (SMARCA4-HiBiT engineered line)
Description: SMARCA4 degradation assay (HiBiT-fusion HeLa cell line, 24 h, luminescence). In kind it is cell-based. The procedure, abridged:
as §1
(In general: HiBiT is a short tag that completes a luciferase, so light tracks the accessible tagged protein.)

T2 sequence (P51532 whole entry): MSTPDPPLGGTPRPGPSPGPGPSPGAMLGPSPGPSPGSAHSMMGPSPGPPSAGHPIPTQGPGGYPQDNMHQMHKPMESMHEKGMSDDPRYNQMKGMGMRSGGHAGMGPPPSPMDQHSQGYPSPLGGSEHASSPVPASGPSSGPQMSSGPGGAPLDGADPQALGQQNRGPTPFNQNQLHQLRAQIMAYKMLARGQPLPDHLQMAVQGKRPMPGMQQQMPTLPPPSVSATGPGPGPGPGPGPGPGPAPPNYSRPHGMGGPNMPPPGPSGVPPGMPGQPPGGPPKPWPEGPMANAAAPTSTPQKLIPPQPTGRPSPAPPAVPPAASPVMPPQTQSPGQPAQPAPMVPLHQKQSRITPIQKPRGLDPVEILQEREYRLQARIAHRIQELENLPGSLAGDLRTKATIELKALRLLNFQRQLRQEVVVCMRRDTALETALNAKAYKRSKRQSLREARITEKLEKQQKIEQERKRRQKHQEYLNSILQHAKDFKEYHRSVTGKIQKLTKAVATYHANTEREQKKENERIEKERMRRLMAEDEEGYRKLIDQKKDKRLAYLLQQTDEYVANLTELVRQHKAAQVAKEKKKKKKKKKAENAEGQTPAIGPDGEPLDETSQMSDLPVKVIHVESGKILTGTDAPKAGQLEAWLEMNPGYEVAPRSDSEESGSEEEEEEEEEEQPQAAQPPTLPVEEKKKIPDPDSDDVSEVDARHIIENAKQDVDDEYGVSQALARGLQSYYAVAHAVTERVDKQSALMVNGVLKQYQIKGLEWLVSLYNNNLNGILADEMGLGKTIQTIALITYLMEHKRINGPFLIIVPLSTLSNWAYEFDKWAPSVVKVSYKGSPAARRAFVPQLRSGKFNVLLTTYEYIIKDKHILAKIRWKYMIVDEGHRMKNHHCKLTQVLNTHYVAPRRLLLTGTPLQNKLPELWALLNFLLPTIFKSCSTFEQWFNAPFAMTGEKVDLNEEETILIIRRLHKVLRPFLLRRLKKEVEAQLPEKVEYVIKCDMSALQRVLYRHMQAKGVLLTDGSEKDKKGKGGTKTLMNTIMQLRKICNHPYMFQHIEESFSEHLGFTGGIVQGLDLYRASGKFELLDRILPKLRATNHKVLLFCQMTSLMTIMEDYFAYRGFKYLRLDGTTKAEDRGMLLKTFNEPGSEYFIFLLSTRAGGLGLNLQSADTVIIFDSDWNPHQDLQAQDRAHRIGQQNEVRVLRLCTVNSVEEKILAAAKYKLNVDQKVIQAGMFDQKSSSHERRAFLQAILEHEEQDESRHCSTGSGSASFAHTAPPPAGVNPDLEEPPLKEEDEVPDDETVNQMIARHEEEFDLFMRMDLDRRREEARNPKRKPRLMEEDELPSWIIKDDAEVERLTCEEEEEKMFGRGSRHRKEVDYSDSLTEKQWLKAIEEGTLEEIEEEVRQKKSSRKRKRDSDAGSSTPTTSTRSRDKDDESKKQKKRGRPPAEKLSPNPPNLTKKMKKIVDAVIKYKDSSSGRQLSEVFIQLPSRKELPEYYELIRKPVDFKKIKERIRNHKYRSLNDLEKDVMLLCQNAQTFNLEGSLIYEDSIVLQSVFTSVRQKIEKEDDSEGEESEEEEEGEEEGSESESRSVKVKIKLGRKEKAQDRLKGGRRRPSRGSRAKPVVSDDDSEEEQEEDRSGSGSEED
T1 sequence (P51531 whole entry): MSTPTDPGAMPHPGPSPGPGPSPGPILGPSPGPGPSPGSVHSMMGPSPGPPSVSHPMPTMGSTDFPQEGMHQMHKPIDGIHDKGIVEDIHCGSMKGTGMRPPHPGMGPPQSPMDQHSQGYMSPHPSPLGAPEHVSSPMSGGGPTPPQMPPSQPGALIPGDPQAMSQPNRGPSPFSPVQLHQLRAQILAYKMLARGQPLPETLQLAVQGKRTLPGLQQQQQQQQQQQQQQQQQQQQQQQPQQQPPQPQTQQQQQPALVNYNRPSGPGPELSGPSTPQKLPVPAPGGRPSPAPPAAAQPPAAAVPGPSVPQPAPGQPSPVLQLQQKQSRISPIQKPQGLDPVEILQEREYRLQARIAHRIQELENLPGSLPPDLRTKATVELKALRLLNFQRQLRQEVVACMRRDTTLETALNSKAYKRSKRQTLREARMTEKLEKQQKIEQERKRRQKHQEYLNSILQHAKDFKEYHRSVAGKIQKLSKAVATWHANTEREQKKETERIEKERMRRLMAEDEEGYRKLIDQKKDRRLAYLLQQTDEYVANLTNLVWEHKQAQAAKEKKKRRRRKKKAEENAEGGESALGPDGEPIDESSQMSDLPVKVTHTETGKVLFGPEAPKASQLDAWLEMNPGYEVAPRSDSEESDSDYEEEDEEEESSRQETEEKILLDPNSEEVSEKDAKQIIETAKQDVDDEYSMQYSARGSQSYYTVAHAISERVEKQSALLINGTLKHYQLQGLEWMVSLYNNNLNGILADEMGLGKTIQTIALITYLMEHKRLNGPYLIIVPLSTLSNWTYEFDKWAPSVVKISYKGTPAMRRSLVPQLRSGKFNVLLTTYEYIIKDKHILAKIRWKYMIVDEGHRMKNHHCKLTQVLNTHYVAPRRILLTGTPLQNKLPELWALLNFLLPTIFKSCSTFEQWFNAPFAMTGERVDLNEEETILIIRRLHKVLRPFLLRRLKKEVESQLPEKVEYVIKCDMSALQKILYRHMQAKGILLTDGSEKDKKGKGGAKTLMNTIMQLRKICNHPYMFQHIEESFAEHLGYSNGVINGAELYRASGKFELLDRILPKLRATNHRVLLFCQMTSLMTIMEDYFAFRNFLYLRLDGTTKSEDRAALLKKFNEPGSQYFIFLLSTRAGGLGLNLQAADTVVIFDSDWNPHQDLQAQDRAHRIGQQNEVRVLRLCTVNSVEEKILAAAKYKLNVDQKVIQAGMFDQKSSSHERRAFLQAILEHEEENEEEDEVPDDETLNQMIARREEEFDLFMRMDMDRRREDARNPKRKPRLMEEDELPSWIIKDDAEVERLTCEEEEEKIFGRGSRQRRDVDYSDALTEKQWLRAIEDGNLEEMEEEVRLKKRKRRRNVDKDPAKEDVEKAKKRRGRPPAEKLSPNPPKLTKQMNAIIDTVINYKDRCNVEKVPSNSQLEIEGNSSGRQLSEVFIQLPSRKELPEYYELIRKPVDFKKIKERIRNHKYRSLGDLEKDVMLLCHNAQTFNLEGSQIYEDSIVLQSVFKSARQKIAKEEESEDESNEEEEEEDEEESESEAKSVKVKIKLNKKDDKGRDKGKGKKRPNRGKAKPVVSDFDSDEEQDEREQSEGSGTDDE

The DC50 is the midpoint of the concentration-degradation curve. Usually inhibition stands for the drop in the measured response relative to a control, in per cent. Low readings indicate a weak effect, high ones a strong effect. Consider `C[C@@H]1CCN(c2cc(-c3ccccc3O)nnc2N)CCN1c1ccnc(C#C[C@@H](O)C2CC2)n1` [Compound P-265, o-{5-[(R)-4-{2-[(S)-3-cyclopropyl-3-hydroxy-1-propynyl]-4-pyrimidinyl}-5-methyl-1,4-diazepan-1-yl]-6-amino-3-pyridaziny1} phenol], for which the DC50 in assay [1] and in assay [2] was 0.05 to 0.5 µM each time. Also, in assay [1] (@ 1 μM), the “SMARCA2 % Degradation @ 1 μM” value was “+++ (+++=>70%)”. For the same compound, in assay [2] (@ 1 μM), the inhibition at 1 µM was over 70%.

`Nc1nnc(-c2ccccc2O)cc1N1CCCN(c2ccnc(C#CC3COC3)n2)CC1` [Compound P-347, 0-[6-amino-5-(4-{2-[2-(3-oxetanyl)ethynyl]-4-pyrimidinyl}-1,4-diazepan-1-yl)-3-pyridazinyl]phenol]: the 50% degradation concentration (DC50) in assay [1] and in assay [2] was 0.05 to 0.5 µM in each case. In assay [1] (@ 1 μM), the “SMARCA2 % Degradation @ 1 μM” value is given as “+++ (+++=>70%)”. Besides, in assay [2] (@ 1 μM), the inhibition at 1 µM is over 70%.

As to `Nc1nnc(-c2ccccc2O)cc1N1CCCN(c2ccnc(C#CCN3CC(F)(F)C3)n2)CC1` [Compound P-312, 0-[6-amino-5-(4-{2-[3-(3,3-difluoro-1-azetidinyl)-1-propynyl]-4-pyrimidinyl}-1,4-diazepan-1-yl)-3-pyridazinyl]phenol], the DC50 in assay [1] and in assay [2] was 0.05 to 0.5 µM each time. In addition, the “SMARCA2 % Degradation @ 1 μM” value in assay [1] (@ 1 μM) is “+++ (+++=>70%)”. Further, the inhibition at 1 µM in assay [2] (@ 1 μM) lay in the range of 30 to 70%.

As for `COC(=O)NCC#Cc1nccc(N2CCCN(c3cc(-c4ccccc4O)nnc3N)CC2)n1` [Compound P-353, 3-(4-{4-[3-amino-6-(o-hydroxyphenyl)-4-pyridaziny1]-1,4-diazepan-1-y1}-2-pyrimidinyl)-2-propynylaminomethylformylate], the DC50 in assay [1] and in assay [2] was 0.05 to 0.5 µM in each case. In addition, the “SMARCA2 % Degradation @ 1 μM” value in assay [1] (@ 1 μM) was “+++ (+++=>70%)”. Further, the inhibition at 1 µM in assay [2] (@ 1 μM) was over 70%.

`CN(C)CC#Cc1nccc(N2C3CCC2CN(c2cnnc(-c4ccccc4O)c2)C3)n1` [Compound P-381, 0-[5-(8-{2-[3-(dimethylamino)-1-propynyl]-4-pyrimidinyl}-3,8-diazabicyclo[3.2.1]oct-3-yl)-3-pyridazinyl]phenol]: the DC50 in assay [1] was 0.05 to 0.5 µM; in assay [2], over 5 µM. In assay [1] (1 μM), the “SMARCA2 % Degradation @ 1 μM” value is on record as “++ (++=30-70%)”.

Turning to `CN(CC#Cc1nccc(N2CCCN(c3cc(-c4ccccc4O)nnc3N)CC2)n1)c1nc2ccccc2o1` [Compound P-107, 2-(6-amino-5-(4-(2-(3-(benzo[d]oxazol-2-yl(methyl)amino)prop-1-yn-1-yl)pyrimidin-4-yl)-1,4-diazepan-1-yl)pyridazin-3-yl)phenol], the DC50 in assay [1] and in assay [2] was under 0.05 µM each time. The “SMARCA2 % Degradation @ 1 μM” value in assay [1] (@ 1 μM) is “+++ (+++=>70%)”. The same compound had an inhibition at 1 µM in assay [2] (@ 1 μM) of over 70%.

In the case of `C[C@@H]1CCN(c2cc(-c3ccccc3O)nnc2N)CCN1c1ccnc(C#C[C@H](O)C2CC2)n1` [Compound P-266, 0-{5-[(R)-4-{2-[(R)-3-cyclopropyl-3-hydroxy-1-propynyl]-4-pyrimidinyl}-5-methyl-1,4-diazepan-1-yl]-6-amino-3-pyridaziny1} phenol], the DC50 in assay [1] and in assay [2] was 0.05 to 0.5 µM throughout. In addition, the “SMARCA2 % Degradation @ 1 μM” value in assay [1] (@ 1 μM) is recorded as “+++ (+++=>70%)”. This compound displayed an inhibition at 1 µM in assay [2] (@ 1 μM) of 30 to 70%.

For `CN(C)CC#Cc1cc(OC2CCN(c3cc(-c4ccccc4O)nnc3N)CC2)ccn1` [Compound P-384, 0-[6-amino-5-(4-{2-[3-(dimethylamino)-1-propynyl]-4-pyridyloxy}-1-piperidyl)-3-pyridazinyl]phenol], the 50% degradation concentration (DC50) in assay [1] and in assay [2] was 0.05 to 0.5 µM in each case. Further, the “SMARCA2 % Degradation @ 1 μM” value in assay [1] (1 μM) is “++ (++=30-70%)”. The inhibition at 1 µM in assay [2] (1 μM) is under 30%.

As for `C[C@H]1CCN(c2cc(-c3ccccc3O)nnc2N)CCN1c1ccnc(C#CCN(C)C)n1` [Compound P-250], the DC50 in assay [1] and in assay [2] was under 0.05 µM in each case. Moreover, the “SMARCA2 % Degradation @ 1 μM” value in assay [1] (@ 1 μM) is “+++ (+++=>70%)”. Also, the inhibition at 1 µM in assay [2] (@ 1 μM) was over 70%.

Take `Cn1nc(C(=O)NCC#Cc2nccc(N3CCN(c4cc(-c5ccccc5O)nnc4N)CC3)n2)cc1C1CC1` [Compound P-6, N-[3-(4-{4-[3-amino-6-(2-hydroxyphenyl)pyridazin-4-yl]piperazin-1-y1}pyrimidin-2-yl)prop-2-yn-1-yl]-5-cyclopropyl-1-methyl-1H-pyrazole-3-carboxamide]: the DC50 is 0.05 to 0.5 µM in assay [1] and under 0.05 µM in assay [2]. The “SMARCA2 % Degradation @ 1 μM” value in assay [1] (@ 1 μM) is “++ (++=30-70%)”. Also, the inhibition at 1 µM in assay [2] (@ 1 μM) lay in the range of 30 to 70%.

`Nc1nnc(-c2ccccc2O)cc1N1CC2CCC(C1)N2c1ccnc(C#CCCCNC(=O)c2cc3ncccn3n2)n1` [Compound P-99, N-(5-(4-(3-(3-amino-6-(2-hydroxyphenyl)pyridazin-4-yl)-3,8-diazabicyclo[3.2.1]octan-8-yl)pyrimidin-2-yl)pent-4-yn-1-yl)pyrazolo[1,5-a]pyrimidine-2-carboxamide]: the DC50 in assay [1] and in assay [2] was 0.5 to 5 µM throughout. Further, in assay [1] (@ 1 μM), the “SMARCA2 % Degradation @ 1 μM” value was “+ (+=<30%)”. Moreover, the inhibition at 1 µM in assay [2] (@ 1 μM) was under 30%.

`CN1CCC(C#Cc2nccc(N3CCCN(c4cc(-c5ccccc5O)nnc4N)CC3)n2)CC1` [Compound P-256, o-[6-amino-5-(4-{2-[2-(1-methyl-4-piperidyl)ethynyl]-4-pyrimidinyl}-1,4-diazepan-1-yl)-3-pyridazinyl]phenol]: the DC50 in assay [1] is 0.05 to 0.5 µM; in assay [2] it was 0.5 to 5 µM. The “SMARCA2 % Degradation @ 1 μM” value in assay [1] (@ 1 μM) is reported as “++ (++=30-70%)”. In addition, in assay [2] (@ 1 μM), the inhibition at 1 µM was in the range of 30 to 70%.

Turning to `CN(C)CC#Cc1nccc(N2CC3CC(Oc4cc(-c5ccccc5O)nnc4N)CC3C2)n1` (stereo not drawn) [Compound P-222, o-[6-amino-5-(3-{2-[3-(dimethylamino)-1-propynyl]-4-pyrimidinyl}-3-azabicyclo[3.3.0]oct-7-yloxy)-3-pyridazinyl]phenol], the DC50 in assay [1] and in assay [2] was 0.05 to 0.5 µM each time. Besides, the “SMARCA2 % Degradation @ 1 μM” value in assay [1] (@ 1 μM) is reported as “+++ (+++=>70%)”. The compound also had an inhibition at 1 µM in assay [2] (@ 1 μM) of over 70%.

Turning to `Nc1nnc(-c2ccccc2O)cc1N1CCN(c2ccnc(C#CCNC(=O)c3noc4ccccc34)n2)CC1` [Compound P-54, N-(3-(4-(4-(3-amino-6-(2-hydroxyphenyl)pyridazin-4-yl)piperazin-1-yl)pyrimidin-2-yl)prop-2-yn-1-yl)benzo[d]isoxazole-3-carboxamide], the DC50 in assay [1] and in assay [2] was 0.05 to 0.5 µM throughout. Also, the “SMARCA2 % Degradation @ 1 μM” value in assay [1] (@ 1 μM) is on record as “++ (++=30-70%)”. This compound gave an inhibition at 1 µM in assay [2] (@ 1 μM) of 30 to 70%.

For `C[C@@H]1CCN(c2cc(-c3ccccc3O)nnc2N)CCN1c1ccnc(C#CC23CCC(C2)N3)n1` (stereo partly drawn) [Compound P-196, o-{5-[(R)-4-(2-{2-(5-azabicyclo[2.1.1]hex-1-yl)ethynyl}-4-pyrimidinyl)-5-methyl-1,4-diazepan-1-yl]-6-amino-3-pyridazinyl}phenol], the DC50 in assay [1] and in assay [2] was 0.5 to 5 µM in each case. The “SMARCA2 % Degradation @ 1 μM” value in assay [1] (@ 1 μM) is given as “++ (++=30-70%)”. The compound also yielded an inhibition at 1 µM in assay [2] (@ 1 μM) of under 30%.

Consider `CNCC#Cc1nccc(N2CCN(c3cc(-c4ccccc4O)nnc3N)CC[C@H]2C)n1` [Compound P-297, 0-{5-[(R)-5-methyl-4-{2-[3-(methylamino)-1-propynyl]-4-pyrimidinyl}-1,4-diazepan-1-yl]-6-amino-3-pyridazinyl} phenol], for which the half-maximal degradation concentration (DC50) in assay [1] is 0.05 to 0.5 µM; in assay [2], under 0.05 µM. For the same compound, the “SMARCA2 % Degradation @ 1 μM” value in assay [1] (@ 1 μM) is “++ (++=30-70%)”. For the same compound, the inhibition at 1 µM in assay [2] (@ 1 μM) was under 30%.

`CN(C)CC#Cc1nc(N2CCCN(c3cc(-c4ccccc4O)nnc3N)CC2)ccc1C#N` [Compound P-385, 6-{4-[3-amino-6-(o-hydroxyphenyl)-4-pyridazinyl]-1,4-diazepan-1-y1}-2-[3-(dimethylamino)-1-propynyl]nicotinonitrile]: the DC50 in assay [1] and in assay [2] was 0.05 to 0.5 µM in each case. In addition, the “SMARCA2 % Degradation @ 1 μM” value in assay [1] (1 μM) was “+++ (+++=>70%)”. For the same compound, the inhibition at 1 µM in assay [2] (1 μM) was over 70%.

On to `Nc1nnc(-c2ccccc2O)cc1N1CCN(c2ccnc(C#CCNC(=O)c3cnc4ccccc4n3)n2)CC1` [Compound P-72, N-(3-(4-(4-(3-amino-6-(2-hydroxyphenyl)pyridazin-4-yl)piperazin-1-yl)pyrimidin-2-yl)prop-2-yn-1-yl)quinoxaline-2-carboxamide], for which the DC50 in assay [1] and in assay [2] was under 0.05 µM each time. Besides, in assay [1] (@ 1 μM), the “SMARCA2 % Degradation @ 1 μM” value is given as “++ (++=30-70%)”. Also, the inhibition at 1 µM in assay [2] (@ 1 μM) fell in the range of 30 to 70%.

In the case of `CC(C)NC(=O)NCC#Cc1nccc(N2CCCN(c3cc(-c4ccccc4O)nnc3N)CC2)n1` [Compound P-327, 0-[6-amino-5-(4-{2-[3-(3-isopropylureido)-1-propynyl]-4-pyrimidinyl}-1,4-diazepan-1-yl)-3-pyridazinyl]phenol], the DC50 in assay [1] and in assay [2] was 0.5 to 5 µM throughout. In assay [1] (@ 1 μM), the “SMARCA2 % Degradation @ 1 μM” value is “++ (++=30-70%)”. In assay [2] (@ 1 μM), this compound had an inhibition at 1 µM of 30 to 70%.

As for `CN(C)CC#Cc1cc(OC2CN(c3cc(-c4ccccc4O)nnc3N)C2)ccn1` [Compound P-386, 0-[6-amino-5-(3-{2-[3-(dimethylamino)-1-propynyl]-4-pyridyloxy}-1-azetidinyl)-3-pyridazinyl]phenol], the half-maximal degradation concentration (DC50) in assay [1] and in assay [2] was under 0.05 µM throughout. The “SMARCA2 % Degradation @ 1 μM” value in assay [1] (1 μM) is recorded as “+ (+=<30%)”.
